Test results: US20240139125A1 (INDUSTRIAL COOPERATION FOUNDATION JEONBUK NATIONAL …, priority 2020, published 2024)
Entries after “also recorded” stand apart in the source; their conditions may differ.

Legend:
Format in all cases: cell-based
MCF7 = assay: Cell proliferation/viability with BIA, IC50 after 3 days; conditions: Homo sapiens, MCF7, 72 h; MCF cells, treatment for 3 days
[1] = test system: HT1080 cells stably overexpressing BI-1; assay: Cell proliferation of BI-1 overexpressing cells with BIA; conditions: 1 day after treatment
[2] = test system: AKT serine phosphorylation (S473); assay: AKT phosphorylation by Western blotting
Description: This is AKT signaling key to cancer cell growth, and BIA and its analogues tend to inhibit it. Only representative experimental results were presented. Data were expressed as mean±SD. After one-way ANOVA, Tukey's post hoc test is conducted.
After cell recovery, cell lytic buffer (10 mM Tris-Cl (pH 7.4), 5 mM EDTA, 130 mM NaCl, 1% Triton X-100) and protease inhibitor mix protease inhibitor cocktail (protease inhibitor cocktail and phosphatase inhibitor cocktail) were added and left at 4° C. for 30 minutes. After breaking the cells with ultrasound, they were centrifuged at 13,000× g at 4° C. for 30 minutes, and then the supernatant was taken, and the concentration was quantified using a protein quantification kit (Bio-Rad Laboratories, Hercules, CA, USA). 20 ug of the obtained protein was electrophoresis with polyacrylamide gel electrophoresis (SDS-PAGE) followed by electrotransfer to PVDF membrane (Bio-Rad). The membrane was blocked at room temperature for 1 hour with a TBS-T solution (20 mM Tris (pH 7.5), 137 mM NaCl, 0.05% Triton X-100) containing 5% skim milk. Then, after switching to a solution containing the primary antibody, it was reacted at 4° C. The membrane after the reaction was washed three times with TBS-T solution, reacted with a secondary antibody, and then luminesced using an ECL kit and autoradiography. […]

BI-1 (TMBIM6) = assay: TMBIM6-GCaMP3 fluorescence, calcium released through BI-1; conditions: HT1080 cells expressing TMBIM6-GCaMP3, BIA 10 μM, over time
[3] = test system: HT1080, MCF7, MDA-MB-231 and SKBR3 cells; assay: Cell migration (Transwell, wound healing)
Description: Image (A) and quantification graph (B) (n=3 independent experiment).
FIG. […] The graph on the right quantifies migrated cells from BIA-treated cells normalized to control cells (n=3 independent experiments. Data were expressed in mean±SD. **p<0.01, ***p<0.001, two-tailed unpaired t-test simulation. The scale bar represents 15 μm.
It was used and checked. Cells were treated with trypsin, and serum and 2×10^4 cells were added to the upper chamber in DMEM, cells transported to the lower chamber via transwell for 12 hours were fixed and stained with crystal violet to perform migration analysis.

[4] = test system: HT1080 and MDA-MB-231 cells; assay: Cell invasion assay
Description: FIG. 65B is an image of an invasive cell in HT1080 and MDA-MB-231 cells treated with 2.0 μM BIA. The graph on the right quantifies invading cells from BIA-treated cells normalized to control cells (n=3 independent experiments). Data were expressed as mean±SD. **p<0.01, ***p<0.001, two-tailed unpaired t-test. The scale bar represents […].
Cells were moved through the polyethylene terephthalate membrane (BD Biosciences) of the insert for 12 hours, and then fixed, crystal violet staining was performed to measure the degree of invasion.
Cell invasion experiments were performed according to the method of the Invasion Assay Kit (corning, 3458). Put a cell culture insert into the 24-well cell culture plate, DMEM medium with 10% FBS added outside the insert , and no FBS added inside the insert. 2.0 μM BIA was added to HT1080 and MDA-MB-231 and incubated at 37° C. for 12˜24 hours. Removed the medium in the 24-well culture plate and the medium inside the insert Then, a cotton swab was used to remove the remaining cells in the insert. After fixing the insert in 4% formaldehyde solution, stain the cells that penetrate the bottom of the insert with crystal violet solution, wash it with tertiary distilled water, and then at room temperature Dried and dried inserts were observed under a microscope.

SARS-CoV2 virus = assay: MTT cell viability of Vero E6 cells infected with SARS-CoV2; conditions: Vero E6, SARS-CoV2 0.1 MOI, 500 nM, 24 hours after treatment; control DMSO-S 66.52±2.28%; 0.5 µM
Description: Vero E6 cells, monkey kidney cell masters, were dispensed at 1×10^4 cells/well per well in 96 well plates and incubated at 37° C., 5% CO2 incubators for 24 hours. SARS-CoV2 to infect Vero E6 cells was S ARS-CoV 43326 distributed from the National Pathogen Resource Bank, and DMEM (2% FBS, 1% antibiotic-antimycotic) medium was dispensed at 100 μL/well to infect 0.1 MOI. For 1 hour The virus was removed after 1 hour of infection in a 37° C., 5% CO2 incubator.
Next, samples prepared so that BIA or analogue compounds were finally 500 nM were dispensed 100 μL/well, including the culture medium, and then treated in a 37° C., 5% CO2 incubator for 24 hours. In the same way, the group treated with 2 μM, 5 μM, or 10 μM of Remdesivir (Rem) was a positive control.
Check the condition of the cells, add 100 μL/well of 0.5 mg/ml MTT solution, react in a 37° C., 5% CO2 incubator for 4 hours, wash out the media, and DMSO to the cells by 100 μL/well After sufficient dissolution, absorbance was measured at 540 nm with a plate reader to evaluate cell viability.
To confirm the possibility of viral prevention and therapeutic effects of BIA and its analogue compounds, 500 nM treatment of BIA analogue at the same time as viral infection, and then MTT assay whether the viability of cells against viral infection is improved after 24 hours. The results confirmed are shown in the graph of FIG. 82.

With `Nc1ccccc1C(=O)/C=C/c1cccc([N+](=O)[O-])c1` [BIA, 2E-1-2-Aminophenyl-3-3-nitrophenyl-2-propen-1-one] the IC50 (MCF7) was 2600 ± 400 nM, the “sensitivity to BIA (cell proliferation)” value [1] was “high sensitivity” and the “phosphorylation of AKT” value ([2]; BIA-treated cells, following loss of BI-1/mTORC2/ribosome binding) was “complete reduction”. For the same compound, the “AKT serine phosphorylation S473” value ([2]; HT1080 cells, 1 or 2 μM) was “inhibited”, the “phosphorylation of AKT” value ([2]; MDA-MB-231 cells, 1 or 2 μM) was “equally inhibited” and the “phosphorylation of AKT” value ([2]; SKBR3 cells, 1 or 2 μM) was “equally inhibited”. For the same compound, the BI-1-GCaMP3 fluorescence intensity (BI-1 (TMBIM6)) was “decreasing pattern; also recorded: decreased over time”, the cell migration ([3]; HT1080, MCF7, MDA-MB-231 and SKBR3 cells, 2.0 μM BIA) was “reduced” and the cell migration ([3]; HT1080 cells, FIGS. 64A and 64B (migration, wound healing 2 μM)) was “reduced”. The “migration of cancer cells” value ([3]; HT1080 fibrosarcoma cells, 10 μM, Transwell 12 hours) was “strongly inhibited”, the cell invasion ([4]; HT1080 fibrosarcoma cells, 12 hours) was “very pronounced cell invasion inhibition” and the cell invasion ([4]; MDA-MB-231 and HT1080 cells, 2.0 μM BIA) was “reduced”. It also gave a cell viability (SARS-CoV2 virus) of 77.94±5.51%.
